Source: US20150191469A1, “COMPOUNDS AND METHODS FOR TREATING HIV” (priority 2012, published 2015)

system: HIV; assay: MT4 assay: antiviral HIV activity (cell protection, cell titer glo readout at 96 hours); assay type: cell-based; conditions: Human immunodeficiency virus 1, MT4, 96 h, MT4 cells, cell titer glo readout at 96 hours, 10 point dose response; read-out: HIV MT4 Assay IC50
Summary of the method: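 MT-4 cells infected with HIV, with inhibition readout by CellTiter-Glo luminescence at 96 h relative to no-compound control. Cytotoxicity measured in parallel under the same conditions. IC50 from a 10-point, 3-4-fold dilution series spanning >1000-fold, fitted with a four-parameter logistic equation.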

| SMILES | IC50 [nM] |
| --- | --- |
| Cc1nc2c(cc(-c3ccnc(-c4ccc5[nH]c(=O)[nH]c5c4)c3)n2C)c(-c2cc(F)c3c(c2C)CCCO3)c1[C@H](OC(C)(C)C)C(=O)O (atropisomer, axis not shown) [Example 55] | 410 |
| Cc1nc2c(cc(-c3ccnc(C#CCN4CCCC4)c3)n2C)c(-c2cc(F)c3c(c2C)CCCO3)c1[C@H](OC(C)(C)C)C(=O)O (atropisomer, axis not shown) [Example 157] | 30 |
| Cc1nc2c(cc(-c3ccnc(-c4cnc5c(cnn5C)c4)c3)n2C)c(-c2cc(F)c3c(c2C)CCCO3)c1[C@H](OC(C)(C)C)C(=O)O (atropisomer, axis not shown) [Example 66] | 8.6 |
| Cc1nc2c(cc(-c3csc(N4C[C@@H](C)O[C@@H](C)C4)n3)n2C)c(-c2cc(F)c3c(c2C)CCCO3)c1[C@H](OC(C)(C)C)C(=O)O (racemic) [Example 409] | 13.4 |
| Cc1nc2c(cc(C(=S)N3CCC(c4ccccc4)CC3)n2C)c(-c2cc(F)c3c(c2C)CCCO3)c1[C@H](OC(C)(C)C)C(=O)O (atropisomer, axis not shown; (M)) [Example 281, (2S)(M)-2-(tert-butoxy)-2-(-4-(8-fluoro-5-methylchroman-6-yl)-1,6-dimethyl-2-(4-phenylpiperidine-1-carbonothioyl)-1H-pyrrolo[2,3-b]pyridin-5-yl)acetic acid] | 38.3 |
| Cc1nc2c(cc(-c3ccnc(-c4ccc5c(cnn5C)c4)c3)n2C)c(-c2cc(F)c3c(c2C)NCCO3)c1[C@H](OC(C)(C)C)C(=O)O (atropisomer, axis not shown) [Example 3, (2S)-2-(tert-butoxy)-2-[4-(8-fluoro-5-methyl-3,4-dihydro-2H-1,4-benzoxazin-6-yl)-1,6-dimethyl-2-[2-(1-methyl-1H-indazol-5-yl)pyridin-4-yl]-1H-pyrrolo[2,3-b]pyridin-5-yl]acetic acid] | 1.9 |
| Cc1nc2c(cc(-c3cnn(C4CCN(C5COC5)CC4)c3)n2C)c(-c2cc(F)c3c(c2C)CCCO3)c1[C@H](OC(C)(C)C)C(=O)O (atropisomer, axis not shown) [Example 133] | 104 |
| Cc1nc2c(cc(-c3nnc(N(C)CCN4CCCC4)o3)n2C)c(-c2cc(F)c3c(c2C)CCCO3)c1[C@H](OC(C)(C)C)C(=O)O [Example 305] | 44.9 |
| Cc1nc2c(cc(-c3nc(N4CCC(N5CCCC5)CC4)ns3)n2C)c(-c2cc(F)c3c(c2C)CCCO3)c1[C@H](OC(C)(C)C)C(=O)O [Example 402] | 15 |
| Cc1nc2c(cc(-c3nc(N4CCN(CC5CCOCC5)CC4)ns3)n2C)c(-c2cc(F)c3c(c2C)CCCO3)c1[C@H](OC(C)(C)C)C(=O)O [Example 390] | 5.4 |
| Cc1nc2c(cc(-c3nnc(N4CCS(=O)(=O)CC4)o3)n2C)c(-c2cc(F)c3c(c2C)CCCO3)c1[C@H](OC(C)(C)C)C(=O)O [Example 316] | 566 |
| Cc1nc2c(cc(-c3ccnc(-c4ccc5c(cnn5C)c4)c3)n2C)c(-c2ccc3c(c2C)OCCO3)c1[C@H](OC(C)(C)C)C(=O)O [Example 427] | 2.7 |
| Cc1nc2c(cc(-c3nnc(N4CCN(C5CCOCC5)[C@H](C)C4)o3)n2C)c(-c2cc(F)c3c(c2C)CCCO3)c1[C@H](OC(C)(C)C)C(=O)O [Example 347] | 6.3 |
| Cc1nc2c(cc(-c3ccnc(-c4ccc5c(cnn5C)c4)c3)n2C)c(-c2ccc3c(c2C)CCCO3)c1[C@H](OC(C)(C)C)C(=O)O (atropisomer, axis not shown; (M)) [Example 1, (2S)(M)-2-(tert-butoxy)-2-(1,6-dimethyl-2-(2-(1-methyl-1H-indazol-5-yl)pyridin-4-yl)-4-(5-methylchroman-6-yl)-1H-pyrrolo[2,3-b]pyridin-5-yl)acetic acid] | 1.7 |
| Cc1nc2c(cc(-c3nnc(N4CCC(C)CC4)o3)n2C)c(-c2cc(F)c3c(c2C)CCCO3)c1[C@H](OC(C)(C)C)C(=O)O [Example 301] | 3.9 |
| Cc1nc2c(cc(-c3nnc(N4CCOC(C)(C)C4)o3)n2C)c(-c2cc(F)c3c(c2C)CCCO3)c1[C@H](OC(C)(C)C)C(=O)O [Example 352] | 5.5 |
| COC[C@H]1CCCN1c1nnc(-c2cc3c(-c4cc(F)c5c(c4C)CCCO5)c([C@H](OC(C)(C)C)C(=O)O)c(C)nc3n2C)o1 [Example 330] | 12.8 |
| Cc1nc2c(cc(-c3ccnc(C#CC4(N)CCCCC4)c3)n2C)c(-c2cc(F)c3c(c2C)CCCO3)c1[C@H](OC(C)(C)C)C(=O)O (atropisomer, axis not shown) [Example 156] | 39.8 |
| Cc1nc2c(cc(-c3nnc(N4CC5CCC(C4)O5)o3)n2C)c(-c2cc(F)c3c(c2C)CCCO3)c1[C@H](OC(C)(C)C)C(=O)O [Example 353] | 7 |
| Cc1nc2c(cc(-c3ccnc(-c4ccc5c(c4)CCN5C)c3)n2C)c(-c2cc(F)c3c(c2C)CCCO3)c1[C@H](OC(C)(C)C)C(=O)O (atropisomer, axis not shown) [Example 8, (2S)-2-(tert-butoxy)-2-[4-(8-fluoro-5-methyl-3,4-dihydro-2H-1-benzopyran-6-yl)-1,6-dimethyl-2-[2-(1-methyl-2,3-dihydro-1H-indol-5-yl)pyridin-4-yl]-1H-pyrrolo[2,3-b]pyridin-5-yl]acetic acid] | 5.6 |

Next, values leading:

| IC50 [nM] | SMILES |
| --- | --- |
| 4.8 | Cc1nc2c(cc(C(=O)NCc3cccc(F)c3)n2C)c(-c2cc(F)c3c(c2C)CCCO3)c1[C@H](OC(C)(C)C)C(=O)O [Example 265] |
| 12600 | Cc1nc2c(cc(CNC(=O)N3CCCN(C4COC4)CC3)n2C)c(-c2cc(F)c3c(c2C)CCCO3)c1[C@H](OC(C)(C)C)C(=O)O [Example 168] |
| 15.7 | Cc1nc2c(cc(CCc3ccnc4ccccc34)n2C)c(-c2cc(F)c3c(c2C)CCCO3)c1[C@H](OC(C)(C)C)C(=O)O [Example 284] |
| 41.4 | Cc1ccc(N2CCN(C(=O)c3cc4c(-c5cc(F)c6c(c5C)CCCO6)c([C@H](OC(C)(C)C)C(=O)O)c(C)nc4n3C)CC2)cc1 [Example 224] |
| 32.4 | CSCCNC(=O)c1cc2c(-c3cc(F)c4c(c3C)CCCO4)c([C@H](OC(C)(C)C)C(=O)O)c(C)nc2n1C [Example 235] |
| 2 | Cc1nc2c(cc(C(=O)NCCC(C)(C)C)n2C)c(-c2cc(F)c3c(c2C)CCCO3)c1[C@H](OC(C)(C)C)C(=O)O [Example 232] |
| 454 | Cc1nc2c(cc(C(=O)NCC3COC3)n2C)c(-c2cc(F)c3c(c2C)CCCO3)c1[C@H](OC(C)(C)C)C(=O)O [Example 264] |
| 31.4 | Cc1nc2c(cc(C(=O)N3CCC(C)(C)CC3)n2C)c(-c2cc(F)c3c(c2C)CCCO3)c1[C@H](OC(C)(C)C)C(=O)O [Example 258] |
| 4.3 | Cc1nc2c(cc(C(=O)NCC3CCCCC3)n2C)c(-c2cc(F)c3c(c2C)CCCO3)c1[C@H](OC(C)(C)C)C(=O)O [Example 237] |
| 110 | Cc1nc2c(cc(C(=O)N3CCC(N4CCCCC4)CC3)n2C)c(-c2cc(F)c3c(c2C)CCCO3)c1[C@H](OC(C)(C)C)C(=O)O [Example 278] |
| 3.1 | Cc1nc2c(cc(C(=O)NCc3ccc(Cl)cc3)n2C)c(-c2cc(F)c3c(c2C)CCCO3)c1[C@H](OC(C)(C)C)C(=O)O [Example 263] |
| 42 | Cc1nc2c(cc(C(=O)N3CCC(F)(F)CC3)n2C)c(-c2cc(F)c3c(c2C)CCCO3)c1[C@H](OC(C)(C)C)C(=O)O [Example 181] |
| 4.5 | Cc1nc2c(cc(-c3nnc(N4CCCC4)o3)n2C)c(-c2cc(F)c3c(c2C)CCCO3)c1[C@H](OC(C)(C)C)C(=O)O [Example 311] |
